Test results taken from patent publication US20110105608A1, “MODULATORS OF NUCLEAR RECEPTOR CO-REGULATORY PROTEIN BINDING” (NORTHEASTERN UNIVERSITY, priority 2008, published 2011).
Where “and” joins values, the source holds several entries; their conditions need not be identical. Equal values may be shown once. Read-outs that look alike come from different tables or passages of the source.

Columns and labels:
[1] = target: T1, purified full-length human ERα (Homo sapiens, UniProt P03372); test: Estrogen receptor relative binding affinity assay, competitive radiometric, [3H]estradiol tracer; settings: RBA of estradiol set to 100%, 18-24 h at 0° C.
T1 construct: purified full-length human ERα and ERβ were purchased from PanVera/Invitrogen; purchased PanVera/Invitrogen (Carlsbad, Calif.)
T1 sequence (P03372 1-595): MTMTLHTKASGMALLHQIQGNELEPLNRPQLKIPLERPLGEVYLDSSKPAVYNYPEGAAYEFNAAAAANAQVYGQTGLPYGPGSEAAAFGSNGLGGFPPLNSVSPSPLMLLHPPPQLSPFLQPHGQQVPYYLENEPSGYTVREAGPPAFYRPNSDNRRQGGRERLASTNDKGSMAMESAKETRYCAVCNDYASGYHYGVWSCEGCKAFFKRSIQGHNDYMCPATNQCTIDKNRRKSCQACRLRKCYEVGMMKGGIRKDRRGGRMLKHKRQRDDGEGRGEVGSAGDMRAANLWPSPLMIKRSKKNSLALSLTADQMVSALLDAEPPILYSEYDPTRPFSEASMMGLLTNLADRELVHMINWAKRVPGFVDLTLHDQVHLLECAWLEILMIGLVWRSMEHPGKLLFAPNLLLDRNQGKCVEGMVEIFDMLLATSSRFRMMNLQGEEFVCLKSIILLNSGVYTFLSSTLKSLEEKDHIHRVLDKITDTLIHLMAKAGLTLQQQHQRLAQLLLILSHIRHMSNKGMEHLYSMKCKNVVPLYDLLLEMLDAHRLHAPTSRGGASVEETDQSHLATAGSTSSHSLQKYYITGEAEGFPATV
Description: (§1) Relative binding affinity assays were run to determine whether the compounds of this disclosure are traditional ligands that compete with estradiol. […]; purified full-length human ERα and ERβ were purchased from PanVera/Invitrogen (Carlsbad, Calif.). Incubations were conducted for 18-24 h at 0° C. Hydroxyapatite (BioRad, Hercules, Calif.) was used to absorb the receptor-ligand complexes, and free ligand was washed away. The binding affinities are expressed as relative binding affinity (RBA) values with the RBA of estradiol set to 100%. […]

[2] = target: T2, purified full-length human ERβ (Homo sapiens, UniProt Q92731); test: as above; settings: RBA of estradiol set to 100%, 18-24 h at 0° C.
T2 construct: purified full-length human ERα and ERβ were purchased from PanVera/Invitrogen; purchased PanVera/Invitrogen (Carlsbad, Calif.)
T2 sequence (Q92731 whole entry): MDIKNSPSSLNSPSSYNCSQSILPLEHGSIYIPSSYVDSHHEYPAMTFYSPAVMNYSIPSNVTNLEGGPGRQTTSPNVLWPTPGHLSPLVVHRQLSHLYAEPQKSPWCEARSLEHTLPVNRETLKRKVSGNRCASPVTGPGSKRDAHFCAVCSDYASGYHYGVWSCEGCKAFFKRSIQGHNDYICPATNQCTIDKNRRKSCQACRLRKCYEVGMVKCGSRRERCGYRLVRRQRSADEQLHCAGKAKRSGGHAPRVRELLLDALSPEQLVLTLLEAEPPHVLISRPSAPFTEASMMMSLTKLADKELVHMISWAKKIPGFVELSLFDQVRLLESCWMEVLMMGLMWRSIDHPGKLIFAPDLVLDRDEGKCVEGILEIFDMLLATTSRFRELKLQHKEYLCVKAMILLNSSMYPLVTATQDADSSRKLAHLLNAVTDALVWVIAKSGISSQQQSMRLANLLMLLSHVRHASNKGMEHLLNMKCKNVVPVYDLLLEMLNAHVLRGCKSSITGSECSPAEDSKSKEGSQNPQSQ
Description: as §1

[3] = target: T3, endogenous ERα in MCF7 cells (Homo sapiens, UniProt P03372); test: RBA assay, competition with 3H-estradiol in MCF7 cells; format: binding; settings: 1 nM 3H-estradiol
T3 construct: the endogenous ERα in MCF7 cells; endogenous in cells; host or cells: MCF7 breast cancer cells
T3 sequence (P03372 1-595): T1 sequence (P03372 1-595)
Description: The RBA assay was performed to examine the ability of the compounds to compete for the binding of 1 nM of 3H-estradiol to the endogenous ERα in MCF7 cells.

ERα-417 / SRC-3-NRD = target: T4, ERα-417 / SRC-3-NRD (Homo sapiens, UniProt P03372, C381S/C530S); test: In vitro coactivator binding inhibitor TR-FRET CBI assay (displacement of SRC3); settings: * = very small dynamic range compared to positive control
T4 sequence (P03372 304-554 C381S/C530S limits assumed): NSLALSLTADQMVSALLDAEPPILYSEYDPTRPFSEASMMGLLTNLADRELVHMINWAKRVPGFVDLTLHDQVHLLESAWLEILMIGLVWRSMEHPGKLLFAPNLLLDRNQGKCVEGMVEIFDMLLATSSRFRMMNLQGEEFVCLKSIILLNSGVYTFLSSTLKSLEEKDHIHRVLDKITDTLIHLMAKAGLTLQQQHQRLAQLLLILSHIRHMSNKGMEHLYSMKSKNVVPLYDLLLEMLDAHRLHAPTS
Source text: (§2) The protocols for both the time-resolved fluorescence resonance energy transfer (TR-FRET) assay and the cell-based reporter gene assay can be found in Parent, et al. (2008) J. Med. Chem. 51(20):6512-30. A 15-mer SRC1-Box II peptide and a published guanylhydrazone CBI (Lafrate et al., (2008) Bioorg. Med. Chem. 2008:16(23)) were used as positive controls in the TR-FRET and reporter gene assays, respectively.
Purified ERα-417, labeled site-specifically with maleimide-biotin (Quanta BioDesign) and SRC-3-NRD, labeled nonspecifically through cysteine residues with iodoacetamide-fluorescein (Invitrogen), were used in the TR-FRET assays. […]. In a second 96-well Nunc polypropylene plate (Nalge Nunc International, Rochester, N.Y.), a 0.02 M solution of each coactivator binding inhibitor was serially diluted in a 1:10 fashion into DMF. Each concentration of coactivator binding inhibitor or vehicle was then diluted 1:10 into TR-FRET buffer, and 10 μL of this solution was added to the stock […] solution in the 96-well plate. After a 20 min incubation, 5 μL of 200 nM fluorescein-SRC-3-NRD was added to each well. This mixture was allowed to incubate for 1 h at RT in the dark. TR-FRET was measured using an excitation filter at 340/10 nm and emission filters for terbium and fluorescein at 495/20 and 520/25 nm, respectively. […].
The results are shown in FIGS. 1A and 1b and show the displacement of the SRC3. The peptide control has an IC50 of about 1 uM.

full-length ER alpha = target: T5, full-length ER alpha (Homo sapiens, UniProt P03372); test: Cell-based luciferase reporter gene assay (2ERE Luc) in HEC-1 cells; settings: * = very small dynamic range compared to positive control
T5 construct: 100 ng of full-length ER alpha expression vector; expressed in transfected cells; host or cells: HEC-1 (human endometrial cancer) cells
T5 sequence (P03372 1-595): T1 sequence (P03372 1-595)
Source text: as §2
Human endometrial cancer (HEC-1) cells were maintained in culture and transfected in 24 well plates. HBSS (50 μL/well), Holo-transferrin (Sigma T1408) (20 μL/well), and lipofectin (Invitrogen no. 18292-011) (5 μL/well) were incubated together at RT for 5 min. A DNA mixture containing 200 ng of pCMVβ-galactosidase as an internal control, 500 ng of the estrogen responsive reporter gene plasmid 2ERE Luc, and 100 ng of full-length ER alpha expression vector with 75 μL of HBSS per well was added to the first mixture and allowed to incubate for 20 min at RT. After changing the cell media to Opti-MEM (350 μL/well), 150 μL of the transfection mixture was added to each well. The cells were incubated at 37° C. in a 5% CO2 containing incubator for 6 h before the medium was replaced with fresh medium containing 5% charcoal-dextran-treated calf serum and the desired concentrations of ligands. Luciferase reporter gene activity was assayed 24 h after ligand addition.
In the initial screen, compounds were assayed in a dose-response format at concentrations ranging from 20 μM to 0.6 μM; […]. Upon validation of antagonistic activity, mechanism of action was examined by repeating the compound titration in the presence of both 10^-7 and 10^-9 M E2 with an expectation that changing the concentration of E2 100-fold would not change the IC50 of true coactivator binding inhibitors. These assays was also repeated to confirm results. The positive control is a guanyl hydrazone.

[4] = target: T6, interaction between ERα and the LXXLL2 peptide from the coactivator GRIP1 (Homo sapiens, UniProt P03372); test: Mammalian two hybrid assay; format: cell-based; settings: FIG. 4; for Effect on the LXXLL-ER interaction: second assay, 5-40 μM
T6 construct: expressed in transfected cells
T6 sequence (P03372 1-595): T1 sequence (P03372 1-595)
Description: The Mammalian Hybrid Assay used a similar procedure as described in Chang et al., Molec. & Cellul. Biol., (1999) 19:12 8226-8239 except the compounds shown in Table 1, supra, were used instead of phage-derived peptides.
(§3) Human cervical cancer (HeLa) and hepatoma (HepG2) cells were cultured in minimum essential medium (Life Technologies, Inc.) supplemented with 10% fetal bovine serum (HyClone), 0.1 mM nonessential amino acids, and 1 mM sodium pyruvate (Life Technologies, Inc.) and maintained in a humidified 37° C. incubator with 5% CO2. For transient transfections, cells were split into 24-well plates 24 h before transfection. Lipofectin (Life Technologies, Inc.)-mediated transfection has been described in detail previously (27). A DNA-Lipofectin mixture containing a total of 3,000 ng of plasmid in each of triplicate samples was incubated with cells for 3 to 5 h, and transfection was stopped by replacing the transfection mix with fresh medium (minimal essential medium without phenol red) containing 10% charcoal-stripped serum. Receptor ligands were added to the cells 14 to 16 h before the assay. Luciferase and (3-galactosidase activities were measured. In mammalian two-hybrid assays, for a typical triplicate of transfection, 2,000 ng of 5×Gal4Luc3 reporter plasmid, 400 ng of receptor-VP16 fusion, 400 ng of pM (Gal4 DBD)-peptide fusion constructs, and 200 ng of normalization plasmid pCMVβgal were used. For ER transcription disruption assays, 1,600 ng of 3 XERE-TATA-Luc reporter, 200 ng of pCMVβgal, 400 ng of either pRST7ERα, pRST7ERβ, or other receptor mutant constructs, and 0 to 800 ng of pM-peptide fusion plasmids were used. The parent pM vector (Gal4DBD without peptide fusion) was used in these experiments to balance the amount of input DNA in transfections. All transfections were performed at least three times.
The mammalian two hybrid assay assessed whether the compounds disrupt the interaction between ERα and an LXXLL peptide derived from an ER coactivator (GRIP1). OH-tam is an ERα antagonist and was used as a positive control.
(§4) A second assay with another group of compounds was performed to determine the proper dose for use in cell culture. Compounds were used at concentrations between 5-40 μM. The mammalian two hybrid assay was used to examine the interaction between ERα and the LXXLL2 peptide from the coactivator GRIP1. #82 and OH-tam were used as controls.

cells = test: Toxicity to cells seen in the mammalian two hybrid dose-finding assay; format: cell-based, Human; settings: FIG. 4; 5-40 μM in cell culture
Description: as §3, §4
AW78 was also effective. […] AW77 was very toxic to cells at the high concentrations tested.

[5] = estradiol 1 μM, read-out: TR-FRET IC50
[6] = repeat run, read-out: TR-FRET Repeat
[7] = HEC-1 cells, in the presence of estradiol, read-out: Reporter Gene IC50
[8] = repeat run, read-out: Reporter Gene IC50 (μM) - repeat

## CN(C)CCOc1ccc(-c2ccc(OCC(=O)O)c(Cc3ccccc3)c2)cc1Cc1ccccc1 [PW-81]
[1]
  ERα RBA: <0.001%
[2]
  ERβ RBA: ~0.001%
[3]
  Competition for the binding of 3H-estradiol: did not compete
ERα-417 / SRC-3-NRD; [5]
  IC50: 163 µM
ERα-417 / SRC-3-NRD; [6]
  IC50: 1100 µM
full-length ER alpha; [7]
  IC50: 13 µM

## CCOC(=O)COc1ccc(-c2ccc(OCCN(C)C)c(C(C)CC)c2)cc1C(C)CC (stereo not drawn) [AW-79]
[4]
  Effect on the LXXLL-ER interaction: induced LXXLL-ER interaction
cells
  Toxicity to cells: toxic at a high dose

## CCOC(=O)COc1ccc(-c2ccc(OCCN(C)C)c(C(C)C)c2)cc1C(C)C [PW-76]
[4]
  Effect on the LXXLL-ER interaction: induced LXXLL-ER interaction

## CCC(C)c1cc(-c2ccc(OCC(=O)O)c(C(C)CC)c2)ccc1OCCN(C)C (stereo not drawn) [AW-87]
[1]
  ERα RBA: ~0.001%
[2]
  ERβ RBA: ~0.001%
ERα-417 / SRC-3-NRD; [5]
  IC50: 87 µM
ERα-417 / SRC-3-NRD; [6]
  IC50: 227 µM
full-length ER alpha; [7]
  IC50: 1.8 µM
full-length ER alpha; [8]
  IC50: 6 µM

## CN(C)CCOc1ccc(-c2ccc(OCC(=O)O)c(C(C)(C)C)c2)cc1C(C)(C)C [AW-82]
[1]; listed as AW-III-82-56
  ERα RBA: 0.055% and 0.038% and 0.049 ± 0.016%
[2]; listed as AW-III-82-56
  ERβ RBA: 0.018% and 0.017% and 0.018 ± 0.001%
[3]
  Competition for the binding of 3H-estradiol: competed
full-length ER alpha; [7]
  IC50: 6 µM

## CCOC(=O)COc1ccc(-c2ccc(O)c(C(C)C)c2)cc1C(C)C [PW-74]
[4]; tested at 5-40 μM
  Concentration at which the ERα-LXXLL2 interaction is inhibited: about 40 μM
cells
  Toxicity to cells: no significant toxicity

## CCOC(=O)COc1ccc(-c2ccc(OCCN(C)C)c(Cc3ccccc3)c2)cc1Cc1ccccc1 [PW-78]
[4]
  Effect on the LXXLL-ER interaction: induced LXXLL-ER interaction

## CC(C)c1cc(-c2ccc(OCC(=O)O)c(C(C)C)c2)ccc1OCCN(C)C [PW-80]
[1]
  ERα RBA: <0.001%
[2]
  ERβ RBA: <0.001%
ERα-417 / SRC-3-NRD; [5]
  IC50: 55 µM
ERα-417 / SRC-3-NRD; [6]
  IC50: 583 µM
full-length ER alpha; [7]
  IC50: 21 µM

## CCOC(=O)COc1ccc(-c2ccc(O)c(C(C)CC)c2)cc1C(C)CC (stereo not drawn) [AW-78]
[4]
  Effect on the LXXLL-ER interaction: effective

## CN(C)CCOc1ccc(-c2ccc(OCC(=O)O)cc2)cc1 [PW-83]
[1]
  ERα RBA: <0.001%
[2]
  ERβ RBA: <0.001%
[3]
  Competition for the binding of 3H-estradiol: competed
ERα-417 / SRC-3-NRD; [5]
  IC50: 205 µM
ERα-417 / SRC-3-NRD; [6]
  IC50: 2050 µM
full-length ER alpha; [7]
  IC50: 5.8 µM
full-length ER alpha; [8]
  IC50: 18 µM

## CCOC(=O)COc1ccc(-c2ccc(O)c(Cc3ccccc3)c2)cc1Cc1ccccc1 [PW-77]
cells
  Toxicity to cells: very toxic

## CCOC(=O)COc1ccc(-c2ccc(O)c(C(C)(C)C)c2)cc1C(C)(C)C [AW-73]
[4]
  Effect on the LXXLL-ER interaction: induced LXXLL-ER interaction

## CCOC(=O)COc1ccc(-c2ccc(OCCN(C)C)cc2)cc1 [PW-82]
[4]
  Effect on the LXXLL-ER interaction: induced LXXLL-ER interaction

## CCOC(=O)COc1ccc(-c2ccc(O)cc2)cc1 [AW-84]
[4]
  Effect on the LXXLL-ER interaction: induced LXXLL-ER interaction
